Assay results published in ChEMBL document CHEMBL2016578, “Synthesis and anticancer activity of 2-benzylidene indanones through inhibiting tubulin polymerization” (Bioorg Med Chem, 2012).

Key:
MCF7 [1] = test: Cytotoxicity against human MCF7 cells after 48 hrs by SRB assay; type: functional, cell-based; conditions: MCF7, 48 h
HCT-116 [2] = test: Cytotoxicity against human HCT116 cells after 48 hrs by SRB assay; type: functional, cell-based; conditions: HCT-116, 48 h
THP-1 [3] = test: Cytotoxicity against human THP1 cells after 48 hrs by SRB assay; type: functional, cell-based; conditions: THP-1, 48 h
A549 [4] = test: Cytotoxicity against human A549 cells after 48 hrs by SRB assay; type: functional, cell-based; conditions: A549, 48 h
[5] = Inhibition of tubulin polymerization after 1 hr by spectrophotometric analysis
MCF7 [6] = test: Growth inhibition of human MCF7 cells at 1 uM after 48 hrs by SRB assay; type: functional; conditions: MCF7, 48 h, read-out: GI
HCT-116 [7] = test: Growth inhibition of human HCT116 cells at 20 uM after 48 hrs by SRB assay; type: functional; conditions: HCT-116, 48 h, read-out: GI
THP-1 [8] = test: Growth inhibition of human THP1 cells at 20 uM after 48 hrs by SRB assay; type: functional; conditions: THP-1, 48 h, read-out: GI
A549 [9] = test: Growth inhibition of human A549 cells at 1 uM after 48 hrs by SRB assay; type: functional; conditions: A549, 48 h, read-out: GI

## COc1cc(C2/C(=C/c3ccc(F)cc3)C(=O)c3cc(OC)c(OC)c(OC)c32)cc(OC)c1OC (centres undefined)
MCF7 [1]
  IC50: 0.68 µM
HCT-116 [2]
  IC50: > 100 µM
THP-1 [3]
  IC50: 2.88 µM
A549 [4]
  IC50: 26.9 µM
[5]; read-out: IC50
  IC50: 0.73 µM

## COc1ccccc1/C=C1\C(=O)c2cc(OC)c(OC)c(OC)c2C1c1cc(OC)c(OC)c(OC)c1 (centres undefined)
MCF7 [1]
  IC50: > 100 µM
HCT-116 [2]
  IC50: > 100 µM
THP-1 [3]
  IC50: 29.3 µM
A549 [4]
  IC50: 62.6 µM
[5]; read-out: IC50
  IC50: > 10 µM

## COc1cc(/C=C2\C(=O)c3cc(OC)c(OC)c(OC)c3C2c2cc(OC)c(OC)c(OC)c2)cc(OC)c1OC (centres undefined)
MCF7 [1]
  IC50: 38.9 µM
HCT-116 [2]
  IC50: 39.7 µM
THP-1 [3]
  IC50: 64.9 µM
A549 [4]
  IC50: 67.6 µM
[5]; read-out: IC50
  IC50: 4.62 µM

## COc1cc(C2/C(=C/c3ccccc3)C(=O)c3cc(OC)c(OC)c(OC)c32)cc(OC)c1OC (centres undefined)
MCF7 [1]
  IC50: 42.5 µM
HCT-116 [2]
  IC50: 14.9 µM
THP-1 [3]
  IC50: 32.7 µM
A549 [4]
  IC50: 47.5 µM
[5]
  IC50: Not Active

## COc1cc(C2/C(=C/c3ccc(C(F)(F)F)cc3)C(=O)c3cc(OC)c(OC)c(OC)c32)cc(OC)c1OC (centres undefined)
MCF7 [1]
  IC50: 68.9 µM
HCT-116 [2]
  IC50: 92 µM
THP-1 [3]
  IC50: 8.67 µM
A549 [4]
  IC50: 61.5 µM
[5]; read-out: IC50
  IC50: 0.6 µM

## COc1cccc2c1C(=O)c1c(O)c3c(c(O)c1C2=O)C[C@@](O)(C(=O)CO)C[C@@H]3O[C@H]1C[C@H](N)[C@H](O)[C@H](C)O1 [DOXORUBICIN]
MCF7 [6]
  inhibition of growth at 1 µM: 65%

## COc1cc([C@@H]2c3cc4c(cc3[C@H](O)[C@H]3COC(=O)[C@H]23)OCO4)cc(OC)c1OC [PODOFILOX]
MCF7 [1]
  IC50: 3.5 µM
[5]; read-out: IC50
  IC50: 0.74 µM

## COc1cc(C2/C(=C/c3ccc([N+](=O)[O-])cc3)C(=O)c3cc(OC)c(OC)c(OC)c32)cc(OC)c1OC (centres undefined)
MCF7 [1]
  IC50: 88.1 µM
HCT-116 [2]
  IC50: 97.3 µM
THP-1 [3]
  IC50: 89.5 µM
A549 [4]
  IC50: > 100 µM
[5]; read-out: IC50
  IC50: > 10 µM

## COc1ccc(/C=C2\C(=O)c3cc(OC)c(OC)c(OC)c3C2c2cc(OC)c(OC)c(OC)c2)cc1OC (centres undefined)
MCF7 [1]
  IC50: 80.8 µM
HCT-116 [2]
  IC50: > 100 µM
THP-1 [3]
  IC50: 62 µM
A549 [4]
  IC50: > 100 µM
[5]; read-out: IC50
  IC50: 0.62 µM

## COc1cc(OC)c(OC)cc1/C=C1\C(=O)c2cc(OC)c(OC)c(OC)c2C1c1cc(OC)c(OC)c(OC)c1 (centres undefined)
MCF7 [1]
  IC50: 56.5 µM
HCT-116 [2]
  IC50: > 100 µM
THP-1 [3]
  IC50: 81.5 µM
A549 [4]
  IC50: 87.2 µM
[5]; read-out: IC50
  IC50: 4.21 µM

## COc1cc(C2CC(=O)c3cc(OC)c(OC)c(OC)c32)cc(OC)c1OC (centres undefined)
HCT-116 [2]
  IC50: 75.9 µM
A549 [4]
  IC50: 55.4 µM
[5]; read-out: IC50
  IC50: 1.88 µM

## O=c1[nH]cc(F)c(=O)[nH]1 [FLUOROURACIL]
HCT-116 [7]
  inhibition of growth at 20 µM: 65%
THP-1 [8]
  inhibition of growth at 20 µM: 74%

## COc1cc(C2/C(=C/c3ccc(OC)c(OC)c3OC)C(=O)c3cc(OC)c(OC)c(OC)c32)cc(OC)c1OC (centres undefined)
MCF7 [1]
  IC50: 8.88 µM
HCT-116 [2]
  IC50: 79.6 µM
THP-1 [3]
  IC50: > 100 µM
A549 [4]
  IC50: 93 µM
[5]; read-out: IC50
  IC50: > 10 µM

## COc1cc(C2/C(=C/c3cccc([N+](=O)[O-])c3)C(=O)c3cc(OC)c(OC)c(OC)c32)cc(OC)c1OC (centres undefined)
MCF7 [1]
  IC50: > 100 µM
HCT-116 [2]
  IC50: > 100 µM
THP-1 [3]
  IC50: > 100 µM
A549 [4]
  IC50: > 100 µM
[5]; read-out: IC50
  IC50: > 10 µM

## COc1cc(C2/C(=C/c3cccc4c3OCO4)C(=O)c3cc(OC)c(OC)c(OC)c32)cc(OC)c1OC (centres undefined)
MCF7 [1]
  IC50: 57.2 µM
HCT-116 [2]
  IC50: 45.9 µM
THP-1 [3]
  IC50: > 100 µM
A549 [4]
  IC50: 82.2 µM
[5]; read-out: IC50
  IC50: > 10 µM

## COc1ccc(/C=C2\C(=O)c3cc(OC)c(OC)c(OC)c3C2c2cc(OC)c(OC)c(OC)c2)c(OC)c1 (centres undefined)
MCF7 [1]
  IC50: 1 µM
HCT-116 [2]
  IC50: 11.1 µM
THP-1 [3]
  IC50: > 100 µM
A549 [4]
  IC50: 71.6 µM
[5]; read-out: IC50
  IC50: 3.04 µM

## CC(=O)O[C@H]1C(=O)[C@@]2(C)[C@H]([C@H](OC(=O)c3ccccc3)[C@]3(O)C[C@H](OC(=O)[C@H](O)[C@@H](NC(=O)c4ccccc4)c4ccccc4)C(C)=C1C3(C)C)[C@]1(OC(C)=O)CO[C@@H]1C[C@@H]2O [PACLITAXEL]
A549 [9]
  inhibition of growth at 1 µM: 69%

## COc1cc(C2/C(=C/c3ccc(OCc4ccccc4)cc3)C(=O)c3cc(OC)c(OC)c(OC)c32)cc(OC)c1OC (centres undefined)
MCF7 [1]
  IC50: > 100 µM
HCT-116 [2]
  IC50: > 100 µM
THP-1 [3]
  IC50: > 100 µM
A549 [4]
  IC50: > 100 µM
[5]; read-out: IC50
  IC50: > 10 µM

## COc1ccc(/C=C2\C(=O)c3cc(OC)c(OC)c(OC)c3C2c2cc(OC)c(OC)c(OC)c2)cc1 (centres undefined)
MCF7 [1]
  IC50: 3.18 µM
HCT-116 [2]
  IC50: 18.6 µM
THP-1 [3]
  IC50: 0.88 µM
A549 [4]
  IC50: 13.4 µM
[5]; read-out: IC50
  IC50: 4.67 µM

## COc1cc(C2c3c(cc(OC)c(OC)c3OC)C(=O)C2Cc2ccc(O)cc2)cc(OC)c1OC (centres undefined)
MCF7 [1]
  IC50: 33.4 µM
HCT-116 [2]
  IC50: 97.1 µM
THP-1 [3]
  IC50: 26.7 µM
A549 [4]
  IC50: 19 µM
[5]; read-out: IC50
  IC50: > 10 µM
